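Grown in 96-well plates, cells were treated for 48 hours with each compound at five concentrations. Insufficient inhibition: endpoint recorded as highest concentration tested. Abbreviation: GI50, concentration required for 50% inhibition of growth.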 Calls of active or inactive are those of the source. Cut-off read from the data, not from the text of the source: active = GI50 up to about 1.1 µM and inactive = higher.
What was measured:
Assay in all cases: DTP human tumour cell line panel, 48 h
[1] = system: EKVX
[2] = system: ACHN
[3] = system: U-251
[4] = system: KM12
[5] = system: UO-31
[6] = system: HCC 2998
[7] = system: A498
[8] = system: SW-620
[9] = system: UACC-62
[10] = system: NCI-H226
[11] = system: HT-29
[12] = system: UACC-257
[13] = system: IGROV-1
[14] = system: NCI-H460
[15] = system: COLO 205
[16] = system: DMS-273
[17] = system: RPMI-8226
[18] = system: SK-MEL-5
[19] = system: SNB-75
[20] = system: Malme-3M
[21] = system: DLD-1
[22] = system: OVCAR-4
[23] = system: RXF 393
[24] = system: MOLT-4
[25] = system: OVCAR-8
[26] = system: KM-20L2
[27] = system: K562
[28] = system: HOP-18
[29] = system: OVCAR-5
[30] = system: CAKI-1
[31] = system: HOP-62
[32] = system: A549
[33] = system: HCT-116
[34] = system: SF-295
[35] = system: NCI-H522
[36] = system: TK-10
[37] = system: NCI-H23
[38] = system: M14
[39] = system: SNB-78
[40] = system: SR
[41] = system: SNB-19
[42] = system: 786-0
[43] = system: LXFL 529
[44] = system: SK-MEL-2
[45] = system: M19-MEL
[46] = system: SN12C
[47] = system: HOP-92
[48] = system: SF-539
[49] = system: SK-MEL-28
[50] = system: HCT-15
[51] = system: SF-268
[52] = system: SK-OV-3
[53] = system: HL-60
[54] = system: DMS-114
[55] = system: CCRF-CEM
[56] = system: OVCAR-3
[57] = system: LOX IMVI

How did the GI50 [1] turn out when O=[N+]([O-])c1ccc(C2=NN(c3ccccc3)C[N+](c3ccc(Br)cc3)=N2)cc1 was run?
The GI50 was > 100 µM (inactive).

What about the GI50 [2] of the same molecule?
The GI50 was > 100 µM (inactive).

And the GI50 [3]?
Its GI50 is 71.3 µM (inactive).

What about the GI50 [4] of the same molecule?
The GI50 was > 100 µM (inactive).

What about the GI50 [5] of the same molecule?
The GI50 was > 100 µM (inactive).

And the GI50 [6]?
The GI50 was 41.6 µM (inactive).

And the GI50 [7]?
The GI50 was > 100 µM (inactive).

And the GI50 [8]?
Its GI50 is > 100 µM (inactive).

What about the GI50 [9] of the same molecule?
The GI50 was > 100 µM (inactive).

And the GI50 [10]?
The GI50 was > 100 µM (inactive).

And the GI50 [11]?
The GI50 was > 100 µM (inactive).

What about the GI50 [12] of the same molecule?
The GI50 was > 100 µM (inactive).

What about the GI50 [13] of the same molecule?
The GI50 was > 100 µM (inactive).

And the GI50 [14]?
Its GI50 is > 100 µM (inactive).

What about the GI50 [15] of the same molecule?
Its GI50 is > 100 µM (inactive).

And the GI50 [16]?
The GI50 was > 100 µM (inactive).

And the GI50 [17]?
The GI50 was > 100 µM (inactive).

What about the GI50 [18] of the same molecule?
Its GI50 is > 100 µM (inactive).

What about the GI50 [19] of the same molecule?
The GI50 was > 100 µM (inactive).

What about the GI50 [20] of the same molecule?
Its GI50 is > 100 µM (inactive).

And the GI50 [21]?
Its GI50 is > 100 µM (inactive).

And the GI50 [22]?
The GI50 was > 100 µM (inactive).

And the GI50 [23]?
Its GI50 is 31.1 µM (inactive).

What about the GI50 [24] of the same molecule?
The GI50 was 44.3 µM (inactive).

And the GI50 [25]?
Its GI50 is > 100 µM (inactive).

What about the GI50 [26] of the same molecule?
Its GI50 is > 100 µM (inactive).

What about the GI50 [27] of the same molecule?
The GI50 was 70.3 µM (inactive).

What about the GI50 [28] of the same molecule?
The GI50 was > 100 µM (inactive).

What about the GI50 [29] of the same molecule?
Its GI50 is > 100 µM (inactive).

And the GI50 [30]?
Its GI50 is > 100 µM (inactive).

And the GI50 [31]?
Its GI50 is > 100 µM (inactive).

And the GI50 [32]?
Its GI50 is 82 µM (inactive).

What about the GI50 [33] of the same molecule?
The GI50 was 89.5 µM (inactive).

What about the GI50 [34] of the same molecule?
The GI50 was 75.5 µM (inactive).

And the GI50 [35]?
The GI50 was 38.1 µM (inactive).

And the GI50 [36]?
Its GI50 is > 100 µM (inactive).

And the GI50 [37]?
Its GI50 is 70.6 µM (inactive).

And the GI50 [38]?
The GI50 was > 100 µM (inactive).

What about the GI50 [39] of the same molecule?
The GI50 was > 100 µM (inactive).

And the GI50 [40]?
Its GI50 is 96.8 µM (inactive).

What about the GI50 [41] of the same molecule?
The GI50 was > 100 µM (inactive).

And the GI50 [42]?
The GI50 was > 100 µM (inactive).

And the GI50 [43]?
Its GI50 is 63.5 µM (inactive).

What about the GI50 [44] of the same molecule?
The GI50 was > 100 µM (inactive).

What about the GI50 [45] of the same molecule?
Its GI50 is > 100 µM (inactive).

What about the GI50 [46] of the same molecule?
The GI50 was > 100 µM (inactive).

And the GI50 [47]?
Its GI50 is 78.7 µM (inactive).

What about the GI50 [48] of the same molecule?
The GI50 was 46 µM (inactive).

And the GI50 [49]?
Its GI50 is > 100 µM (inactive).

What about the GI50 [50] of the same molecule?
The GI50 was greater than 100 µM.

What about the GI50 [51] of the same molecule?
Its GI50 is 60.5 µM (inactive).

What about the GI50 [52] of the same molecule?
Its GI50 is > 100 µM (inactive).

With CCn1cnc2c(=S)nc(N)[nH]c21 as the molecule, how does the GI50 [1] read?
Its GI50 is > 100 µM (inactive).

What about the GI50 [2] of the same molecule?
The GI50 was > 100 µM (inactive).

And the GI50 [3]?
The GI50 was > 100 µM (inactive).

What about the GI50 [4] of the same molecule?
Its GI50 is > 100 µM (inactive).

And the GI50 [5]?
The GI50 was > 100 µM (inactive).

What about the GI50 [53] of the same molecule?
Its GI50 is > 100 µM (inactive).

What about the GI50 [6] of the same molecule?
The GI50 was > 100 µM (inactive).

And the GI50 [8]?
Its GI50 is > 100 µM (inactive).

What about the GI50 [9] of the same molecule?
Its GI50 is > 100 µM (inactive).

And the GI50 [10]?
Its GI50 is > 100 µM (inactive).

And the GI50 [11]?
The GI50 was > 100 µM (inactive).

What about the GI50 [12] of the same molecule?
The GI50 was > 100 µM (inactive).

And the GI50 [13]?
The GI50 was > 100 µM (inactive).

And the GI50 [14]?
Its GI50 is > 100 µM (inactive).

And the GI50 [15]?
Its GI50 is > 100 µM (inactive).

And the GI50 [16]?
Its GI50 is > 100 µM (inactive).

And the GI50 [54]?
The GI50 was > 100 µM (inactive).

What about the GI50 [17] of the same molecule?
The GI50 was > 100 µM (inactive).

What about the GI50 [19] of the same molecule?
The GI50 was > 100 µM (inactive).

And the GI50 [20]?
Its GI50 is > 100 µM (inactive).

What about the GI50 [21] of the same molecule?
Its GI50 is > 100 µM (inactive).

What about the GI50 [23] of the same molecule?
The GI50 was > 100 µM (inactive).

And the GI50 [24]?
The GI50 was > 100 µM (inactive).

What about the GI50 [25] of the same molecule?
The GI50 was > 100 µM (inactive).

And the GI50 [55]?
Its GI50 is > 100 µM (inactive).

What about the GI50 [26] of the same molecule?
The GI50 was > 100 µM (inactive).

What about the GI50 [27] of the same molecule?
Its GI50 is > 100 µM (inactive).

And the GI50 [31]?
The GI50 was > 100 µM (inactive).

And the GI50 [56]?
The GI50 was > 100 µM (inactive).

And the GI50 [32]?
Its GI50 is > 100 µM (inactive).

What about the GI50 [33] of the same molecule?
Its GI50 is > 100 µM (inactive).

And the GI50 [34]?
The GI50 was > 100 µM (inactive).

And the GI50 [35]?
Its GI50 is > 100 µM (inactive).

And the GI50 [36]?
Its GI50 is > 100 µM (inactive).

And the GI50 [37]?
Its GI50 is > 100 µM (inactive).

And the GI50 [38]?
The GI50 was > 100 µM (inactive).

What about the GI50 [39] of the same molecule?
Its GI50 is > 100 µM (inactive).

And the GI50 [40]?
The GI50 was > 100 µM (inactive).

And the GI50 [41]?
The GI50 was > 100 µM (inactive).

What about the GI50 [42] of the same molecule?
Its GI50 is > 100 µM (inactive).

And the GI50 [43]?
Its GI50 is > 100 µM (inactive).

What about the GI50 [45] of the same molecule?
The GI50 was > 100 µM (inactive).

What about the GI50 [46] of the same molecule?
Its GI50 is > 100 µM (inactive).

What about the GI50 [48] of the same molecule?
The GI50 was > 100 µM (inactive).

What about the GI50 [57] of the same molecule?
The GI50 was > 100 µM (inactive).

What about the GI50 [49] of the same molecule?
Its GI50 is > 100 µM (inactive).

What about the GI50 [50] of the same molecule?
Its GI50 is greater than 100 µM.

And the GI50 [51]?
The GI50 was > 100 µM (inactive).

What about the GI50 [52] of the same molecule?
Its GI50 is > 100 µM (inactive).
